Measured values reported in publication PMC11265914, “Unravelling nicotinic receptor and ligand features underlying neonicotinoid knockdown actions on the malaria vector mosquito Anopheles gambiae” (Open Biology, 2024).

Biological target: T1, Ls-AChBP (Lymnaea stagnalis, UniProt P58154, Q74R)
T1 construct: over-expressed in Pichia pastoris, deglycosylated, purified; homo-pentamer
Assay: X-ray crystal structure of the complex
Format: binding
Conditions: cocrystallized with 1 mM dinotefuran, PEG4000, 0.2 M sodium citrate pH 5.4, 20 °C; all five orthosteric sites

CNC(=N[N+](=O)[O-])NC[C@@H]1CCOC1 [dinotefuran]
X-ray crystal structure of the complex: Dinotefuran bound to all five orthosteric sites of the protein
